According to patent publication US20230348418A1, “ISOINDOLINONE COMPOUNDS” (Monte Rosa Therapeutics, Inc., priority 2021, published 2023):
Like-named read-outs stand apart in the source and are kept apart here.

What was measured:
GSPT1 [1] = target: T1, GSPT1 (Homo sapiens, UniProt P15170+Q96SW2); test: Western blot selectivity assay in MM1S cells: GSPT1; assay type: cell-based; parameters: endogenous in cells; host or cells: MM1S (ATCC CRL-2974); conditions: MM1S cells, 0.3, 3 and 30 μM, 6 hours
T1 sequence (P15170 whole entry): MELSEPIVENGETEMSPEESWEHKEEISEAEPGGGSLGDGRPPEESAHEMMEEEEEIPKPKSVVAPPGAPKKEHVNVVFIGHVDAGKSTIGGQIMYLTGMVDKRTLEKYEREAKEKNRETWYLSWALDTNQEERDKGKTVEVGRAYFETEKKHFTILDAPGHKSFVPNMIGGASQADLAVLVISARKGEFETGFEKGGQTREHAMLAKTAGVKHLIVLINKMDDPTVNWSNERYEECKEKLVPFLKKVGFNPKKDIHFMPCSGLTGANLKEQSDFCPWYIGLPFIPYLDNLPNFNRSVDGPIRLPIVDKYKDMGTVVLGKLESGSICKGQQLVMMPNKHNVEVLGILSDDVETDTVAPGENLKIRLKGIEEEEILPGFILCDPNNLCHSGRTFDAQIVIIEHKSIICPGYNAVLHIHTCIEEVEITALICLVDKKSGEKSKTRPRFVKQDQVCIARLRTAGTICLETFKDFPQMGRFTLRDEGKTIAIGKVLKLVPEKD
T1 sequence (Q96SW2 whole entry): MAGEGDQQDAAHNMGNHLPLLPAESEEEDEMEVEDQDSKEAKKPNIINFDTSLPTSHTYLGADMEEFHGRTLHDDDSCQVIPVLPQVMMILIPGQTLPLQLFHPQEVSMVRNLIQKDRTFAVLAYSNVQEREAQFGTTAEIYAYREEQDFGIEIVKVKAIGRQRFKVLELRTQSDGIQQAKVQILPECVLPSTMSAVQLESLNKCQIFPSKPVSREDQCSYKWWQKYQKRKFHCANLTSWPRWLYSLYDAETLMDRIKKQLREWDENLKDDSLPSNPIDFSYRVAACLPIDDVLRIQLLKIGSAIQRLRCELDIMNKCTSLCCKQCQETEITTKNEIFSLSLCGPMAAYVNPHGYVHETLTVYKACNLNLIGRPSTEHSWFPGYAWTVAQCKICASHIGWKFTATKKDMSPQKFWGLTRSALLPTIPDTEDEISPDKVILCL
T1 sequence (Q16531 2-1140 partner limits assumed): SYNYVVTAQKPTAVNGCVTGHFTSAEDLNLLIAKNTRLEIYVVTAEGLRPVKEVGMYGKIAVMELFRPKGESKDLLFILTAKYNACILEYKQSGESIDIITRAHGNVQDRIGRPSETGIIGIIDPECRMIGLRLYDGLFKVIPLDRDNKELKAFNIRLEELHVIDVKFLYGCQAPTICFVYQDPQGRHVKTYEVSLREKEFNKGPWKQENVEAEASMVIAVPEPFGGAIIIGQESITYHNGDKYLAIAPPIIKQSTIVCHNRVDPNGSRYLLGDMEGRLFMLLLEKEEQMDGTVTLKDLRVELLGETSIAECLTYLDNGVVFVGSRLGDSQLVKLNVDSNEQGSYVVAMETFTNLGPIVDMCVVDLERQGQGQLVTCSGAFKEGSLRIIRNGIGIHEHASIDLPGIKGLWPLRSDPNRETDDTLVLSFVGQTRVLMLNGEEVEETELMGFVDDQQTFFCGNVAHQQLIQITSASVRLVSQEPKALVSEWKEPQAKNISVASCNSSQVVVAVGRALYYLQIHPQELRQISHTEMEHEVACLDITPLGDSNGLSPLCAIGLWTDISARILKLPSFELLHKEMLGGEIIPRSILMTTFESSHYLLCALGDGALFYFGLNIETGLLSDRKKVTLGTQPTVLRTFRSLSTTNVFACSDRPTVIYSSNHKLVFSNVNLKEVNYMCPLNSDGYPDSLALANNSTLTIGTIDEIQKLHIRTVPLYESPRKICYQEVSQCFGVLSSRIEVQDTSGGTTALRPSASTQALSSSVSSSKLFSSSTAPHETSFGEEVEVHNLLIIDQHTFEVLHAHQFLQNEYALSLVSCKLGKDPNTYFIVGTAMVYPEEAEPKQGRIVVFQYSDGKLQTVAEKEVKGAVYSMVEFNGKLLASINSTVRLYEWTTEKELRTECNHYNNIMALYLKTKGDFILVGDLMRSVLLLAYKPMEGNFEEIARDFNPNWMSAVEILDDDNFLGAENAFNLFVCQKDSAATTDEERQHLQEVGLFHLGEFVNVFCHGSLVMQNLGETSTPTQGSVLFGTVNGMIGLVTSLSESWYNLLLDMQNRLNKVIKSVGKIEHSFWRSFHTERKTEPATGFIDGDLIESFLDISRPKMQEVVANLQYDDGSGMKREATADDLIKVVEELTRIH
Experimental: (§1) MM1S cells were purchased from ATCC (cat. Number CRL-2974), sub-cultured in 90% RPMI 1640 with 10% FBS, supplemented with 1×P/S and incubated at 37° C., 5% CO2. Compounds were stored as 10 mM DMSO stock. For the assay, MM1S cells (3 million cells/well) were plated in 6-well plates and incubated over night. Cells were treated with respective compounds using a serial dilution: 0.3 μM, 3 μM and 30 μM as well as a vehicle only (DMSO) control for 6 hours. Media with suspension cells was subsequently transferred to 15 mL conical tubes, wells rinsed twice with ice-cold PBS and merged with cell suspension in respective 15 mL conical tube. Cells were spinned down, supernatant aspirated, pellets resuspended in ice-cold PBS and transferred to microtubes. Cells were spinned down, supernatant aspirated and pellets resuspended in 120 μL RIPA lysis buffer supplemented with protease and phosphatase inhibitors. Cell lysates were incubated on ice for 20 minutes followed by centrifugation at >20,000×g for 5 min. Supernatants were transferred to fresh microtubes and stored at −80° C. Total protein concentration was determined using a BCA assay with a BSA standard curve and concentration of all samples was adjusted to 1 mg/mL. 25 μL 4×LDS sample buffer supplemented with 100 mM DTT was added to 75 μL sample. Samples were centrifuged (8,000×g, 1 min) and incubated at 95° C. for 5 min followed by another centrifugation step (8,000×g, 1 min). 20 μL of each sample was loaded on a 4-12% gel alongside a protein molecular weight marker. Gels were run in the presence of MOPS buffer at 80 Volts for 30 min, followed by 120 Volts for 1.5 h and proteins subsequently transferred onto nitrocellulose membranes at 20 Volts for 7 min using an iBlot2 Gel Transfer Device. Membranes were then cut horizontally into two pieces, covering 80-50 kDa and 50-25 kDa. Blocking the membranes was performed by gently shaking in 5% (w/v) skim milk in TSB-T for 1 hr at room temperature. All primary antibodies were used at a 1/1000 in 5% (w/v) BSA dissolved in TBST and incubated with membranes over night at 4° C. Anti-IKZF1 (Ikaros; D6N9Y; 14859S), anti-IKZF3 (Aiolos; D1C1E; 15103S) antibodies were purchased from Cell Signalling Technology, anti-ZFP91 antibody from Bethyl laboratories, anti-GSPT1 from Sigma Aldrich (HPA052488) and anti CK1alpha from AbCam (ab206652). After three washes with 1×TBST for 5 min, HRP-coupled secondary antibodies diluted in 5% (w/v) BSA/TBST (Goat Anti-Rb IgG, dil. 1/10,000; Goat Anti-Mouse IgG, dil. 1/5000) were added for 1 hr at room temperature. After three washes with 1×TBST (5 minutes each), membranes were incubated with ECL reagent for 1 min at room temperature. Chemiluminescence signals were then detected using a LAS-4000 system with default settings and signals quantified using Image Studio Lite software (version 5.2). Membrane parts previously incubated with antibody against CK1alpha were stripped off antibodies by incubating with stripping buffer for 30 minutes followed by three washed with TBST (5 min each), blocking with 5% (w/v) skim milk for 1 hr, and incubation with primary antibody against GAPDH overnight at 4° C. Subsequent washes, incubation with secondary antibody and signal acquisition were performed as described above.

IKZF3 (Aiolos) = target: T2, IKZF3 (Aiolos) (Homo sapiens, UniProt Q9UKT9); test: Western blot selectivity assay in MM1S cells: IKZF3; assay type: cell-based; parameters: key: A represents a no degradation observed at 30 μM; B represents trace degradation at 30 μM (below 20%); C represents weak degradation at 30 μM (below 50%); D represents degradation at 30 μM (>90%); E represents degradation at 3 μM (>90%); F represents degradation at 0.3 μM (>90%); conditions: MM1S cells, 0.3, 3 and 30 μM, 6 hours
T2 construct: endogenous in cells; host or cells: MM1S (ATCC CRL-2974)
T2 sequence (Q96SW2 whole entry partner): as the sequence (Q96SW2 whole entry) above
T2 sequence (Q16531 2-1140 partner limits assumed): as the sequence (Q16531 2-1140 partner limits assumed) above
T2 sequence (Q9UKT9 whole entry): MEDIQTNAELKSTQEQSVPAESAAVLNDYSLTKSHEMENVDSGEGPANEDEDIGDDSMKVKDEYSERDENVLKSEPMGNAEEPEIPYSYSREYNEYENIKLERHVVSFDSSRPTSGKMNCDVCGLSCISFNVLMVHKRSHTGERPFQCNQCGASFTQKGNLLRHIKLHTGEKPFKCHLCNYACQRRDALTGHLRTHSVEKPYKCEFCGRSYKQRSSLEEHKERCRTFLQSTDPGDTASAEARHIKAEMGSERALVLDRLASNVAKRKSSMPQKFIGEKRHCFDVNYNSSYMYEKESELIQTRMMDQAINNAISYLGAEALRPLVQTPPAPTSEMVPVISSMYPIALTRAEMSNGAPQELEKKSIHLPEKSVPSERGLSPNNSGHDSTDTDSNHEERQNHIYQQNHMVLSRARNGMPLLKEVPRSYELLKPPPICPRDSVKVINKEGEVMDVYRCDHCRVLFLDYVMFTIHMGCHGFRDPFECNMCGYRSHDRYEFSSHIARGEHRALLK
Experimental: as §1, with “After three washes with 1×TBST (5 minutes each), membranes were incubated with ECL reagent for 1 min at room temperature.” left out, “Membrane parts previously incubated with antibody against CK1alpha were stripped off antibodies by incubating with stripping buffer for 30 minutes followed by three washed with TBST (5 min each), blocking with 5% (w/v) skim milk for 1 hr, and incubation with primary antibody against GAPDH overnight at 4° C. Subsequent washes, incubation with secondary antibody and signal acquisition were performed as described above.” left out

IKZF1 (Ikaros) = target: T3, IKZF1 (Ikaros) (Homo sapiens, UniProt Q13422); test: Western blot selectivity assay in MM1S cells: IKZF1; assay type: cell-based; parameters: key: A represents a no degradation observed at 30 μM; B represents trace degradation at 30 μM (below 20%); C represents weak degradation at 30 μM (below 50%); D represents degradation at 30 μM (>90%); E represents degradation at 3 μM (>90%); F represents degradation at 0.3 μM (>90%); conditions: MM1S cells, 0.3, 3 and 30 μM, 6 hours
T3 construct: endogenous in cells; host or cells: MM1S (ATCC CRL-2974)
T3 sequence (Q96SW2 whole entry partner): as the sequence (Q96SW2 whole entry) above
T3 sequence (Q16531 2-1140 partner limits assumed): as the sequence (Q16531 2-1140 partner limits assumed) above
T3 sequence (Q13422 whole entry): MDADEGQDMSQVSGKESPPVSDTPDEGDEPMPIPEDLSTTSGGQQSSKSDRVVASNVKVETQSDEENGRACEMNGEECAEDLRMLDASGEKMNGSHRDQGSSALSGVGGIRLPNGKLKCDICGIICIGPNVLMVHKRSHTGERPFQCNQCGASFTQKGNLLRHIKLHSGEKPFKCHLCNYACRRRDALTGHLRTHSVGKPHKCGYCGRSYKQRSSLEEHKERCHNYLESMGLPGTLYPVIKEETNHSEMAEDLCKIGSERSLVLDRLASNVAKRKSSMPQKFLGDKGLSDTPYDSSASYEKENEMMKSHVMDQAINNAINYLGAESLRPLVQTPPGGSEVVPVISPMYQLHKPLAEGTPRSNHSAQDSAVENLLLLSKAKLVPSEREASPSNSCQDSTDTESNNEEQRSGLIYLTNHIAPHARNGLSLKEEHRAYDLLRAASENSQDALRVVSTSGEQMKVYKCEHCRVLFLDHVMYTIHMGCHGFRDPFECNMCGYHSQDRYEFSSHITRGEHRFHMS
Experimental: as §1

GSPT1 [2] = target: T1, GSPT1; test: Immunofluorescence assay for GSPT1 degradation in CAL-51 cells (Example 4); assay type: cell-based; parameters: host or cells: CAL-51
Experimental: The representative compounds were tested in an immunofluorescence assay for their activity to bind to degrade GSPT1. […] Compounds were stored at 10 mM DMSO stocks. […] Cells were subsequently rinsed with PBS and fixed in 10% Formalin solution (50 μl, Sigma HT5011)) for 20 mins at room temperature. […] Following three further PBS washes, […] blocking buffer (1% BSA, Sigma A4503, in PBS) was added for 45 min for signal-to-noise reduction.
Primary antibody (human GSPT1, Sigma HPA052488) was diluted in blocking buffer (dil.1/300, 35 μl/well) and incubated with the cells overnight at 4° C. […] After three final PBS washes, samples were conserved in 100 μl PBS in the dark, until measurement. Image acquisition was performed on the Operetta High-Content Imager (Perkin-Elmer). […] For the determination of GSPT1 DC50 values, a custom algorithm implemented in the PerkinElmer image analysis software Harmony-Acapella® was developed. After user-defined setting of adjustment parameters, the analysis was run identically without human intervention for all image fields. DAPI staining of the nuclei was used to determine the location of cells using standard nuclei detection modules. Segmentation artifacts were removed by threshold-based filters for area, roundness and intensity. The outline of the cells was determined analogously from the sum of the normalized, smoothed DAPI and Actin channel, starting from each nucleus.
GSPT1 degradation (DC50) was calculated after normalization to controls and data import in CDD vault Database, using non-linear regression.

[3] = target: T4, Full length wild-type cereblon CRBN (Homo sapiens, UniProt Q96SW2); test: Fluorescence polarization (FP) assay, cereblon binding
T4 construct: Full length wild-type cereblon CRBN (80.0 nM, 10 μL) was incubated in assay buffer
T4 sequence (Q96SW2 whole entry): as the sequence (Q96SW2 whole entry) above
Summary of the method: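 Full-length wild-type human CRBN (80.0 nM) was preincubated with compound for 30 min at room temperature in 20 mM HEPES pH 8.0, 150 NaCl, 0.5 mM TCEP and 0.05% Tween 20. A Cy5-type thalidomide-linked fluorescent probe was then added. The FP signal was normalized to the DMSO control to derive IC50.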

CK1alpha = target: T5, CK1alpha (Homo sapiens, UniProt P48729); test: Western blot selectivity assay in MM1S cells: CK1alpha; assay type: cell-based; parameters: key: A represents a no degradation observed at 30 μM; B represents trace degradation at 30 μM (below 20%); C represents weak degradation at 30 μM (below 50%); D represents degradation at 30 μM (>90%); E represents degradation at 3 μM (>90%); F represents degradation at 0.3 μM (>90%); conditions: MM1S cells, 0.3, 3 and 30 μM, 6 hours
T5 construct: endogenous in cells; host or cells: MM1S (ATCC CRL-2974)
T5 sequence (Q96SW2 whole entry partner): as the sequence (Q96SW2 whole entry) above
T5 sequence (Q16531 2-1140 partner limits assumed): as the sequence (Q16531 2-1140 partner limits assumed) above
T5 sequence (P48729 whole entry): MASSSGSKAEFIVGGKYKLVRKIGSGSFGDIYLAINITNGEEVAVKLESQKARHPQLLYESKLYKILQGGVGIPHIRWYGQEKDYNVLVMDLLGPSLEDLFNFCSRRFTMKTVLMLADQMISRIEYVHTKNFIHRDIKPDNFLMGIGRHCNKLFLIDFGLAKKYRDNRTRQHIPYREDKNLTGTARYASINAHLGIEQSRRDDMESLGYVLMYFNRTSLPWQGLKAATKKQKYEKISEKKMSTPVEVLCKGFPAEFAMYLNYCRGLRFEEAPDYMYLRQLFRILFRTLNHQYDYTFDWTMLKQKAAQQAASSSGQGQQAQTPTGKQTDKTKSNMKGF
Experimental: (§2) MM1S cells were purchased from ATCC (cat. Number CRL-2974), sub-cultured in 90% RPMI 1640 with 10% FBS, supplemented with 1×P/S and incubated at 37° C., 5% CO2. Compounds were stored as 10 mM DMSO stock. For the assay, MM1S cells (3 million cells/well) were plated in 6-well plates and incubated over night. Cells were treated with respective compounds using a serial dilution: 0.3 μM, 3 μM and 30 μM as well as a vehicle only (DMSO) control for 6 hours. Media with suspension cells was subsequently transferred to 15 mL conical tubes, wells rinsed twice with ice-cold PBS and merged with cell suspension in respective 15 mL conical tube. Cells were spinned down, supernatant aspirated, pellets resuspended in ice-cold PBS and transferred to microtubes. Cells were spinned down, supernatant aspirated and pellets resuspended in 120 μL RIPA lysis buffer supplemented with protease and phosphatase inhibitors. Cell lysates were incubated on ice for 20 minutes followed by centrifugation at >20,000×g for 5 min. Supernatants were transferred to fresh microtubes and stored at −80° C. Total protein concentration was determined using a BCA assay with a BSA standard curve and concentration of all samples was adjusted to 1 mg/mL. […] Chemiluminescence signals were then detected using a LAS-4000 system with default settings and signals quantified using Image Studio Lite software (version 5.2). […]

ZFP91 = target: T6, ZFP91 (Homo sapiens, UniProt Q96JP5); test: Western blot selectivity assay in MM1S cells: ZFP91; assay type: cell-based; parameters: key: A represents a no degradation observed at 30 μM; B represents trace degradation at 30 μM (below 20%); C represents weak degradation at 30 μM (below 50%); D represents degradation at 30 μM (>90%); E represents degradation at 3 μM (>90%); F represents degradation at 0.3 μM (>90%); conditions: MM1S cells, 0.3, 3 and 30 μM, 6 hours
T6 construct: endogenous in cells; host or cells: MM1S (ATCC CRL-2974)
T6 sequence (Q96SW2 whole entry partner): as the sequence (Q96SW2 whole entry) above
T6 sequence (Q16531 2-1140 partner limits assumed): as the sequence (Q16531 2-1140 partner limits assumed) above
T6 sequence (Q96JP5 2-570 limits assumed): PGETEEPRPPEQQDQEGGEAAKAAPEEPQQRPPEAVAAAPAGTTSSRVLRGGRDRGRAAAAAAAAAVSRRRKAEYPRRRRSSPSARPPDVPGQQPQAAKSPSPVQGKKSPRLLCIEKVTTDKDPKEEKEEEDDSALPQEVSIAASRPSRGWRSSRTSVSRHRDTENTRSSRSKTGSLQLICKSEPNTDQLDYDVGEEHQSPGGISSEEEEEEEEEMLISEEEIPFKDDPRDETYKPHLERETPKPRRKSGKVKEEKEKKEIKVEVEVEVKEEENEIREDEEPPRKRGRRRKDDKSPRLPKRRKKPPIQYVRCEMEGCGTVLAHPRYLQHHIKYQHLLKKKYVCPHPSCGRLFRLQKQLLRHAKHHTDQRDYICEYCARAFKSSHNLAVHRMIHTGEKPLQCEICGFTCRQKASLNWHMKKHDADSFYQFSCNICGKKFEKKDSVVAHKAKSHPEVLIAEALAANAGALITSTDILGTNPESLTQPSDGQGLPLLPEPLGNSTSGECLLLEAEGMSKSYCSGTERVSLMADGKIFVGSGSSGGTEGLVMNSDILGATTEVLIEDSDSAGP
Experimental: as §2

[4] = CAL-51 cells, 6 hours, read-out: Code (activity for GSPT1 degradation, DC50)
[5] = compounds with code A, read-out: DC50 value
[6] = bounds stated in the text lists b2059-b2061, read-out: IC50 value
[7] = cereblon binding, class code, read-out: rFP IC50

## O=C1CCC(N2Cc3ccc(COC(=O)Nc4ccc(-c5ccccc5)nc4)cc3C2=O)C(=O)N1 (stereo not drawn) [Compound 42]
GSPT1 [1]
  GSPT1 degradation: F (F represents degradation at 0.3 μM (>90%))
IKZF3 (Aiolos)
  IKZF3 degradation: A
IKZF1 (Ikaros)
  IKZF1 degradation: A

## O=C1CCC(N2Cc3ccc(COC(=O)Nc4cccc(OC5CC5(F)F)c4)cc3C2=O)C(=O)N1 (stereo not drawn) [Compound 140]
GSPT1 [2]; [4]
  DC50: < 30 nM
GSPT1 [2]; [5]
  DC50: ≤ 30 nM
[3]; [6]
  IC50: < 1100 nM
[3]; [7]
  IC50: 500 to 1100 nM

## CC(C)(C)c1ccc(NC(=O)OCc2ccc3c(c2)C(=O)N(C2CCC(=O)NC2=O)C3)cc1 (stereo not drawn) [Compound 47]
GSPT1 [1]
  GSPT1 degradation: F (F represents degradation at 0.3 μM (>90%))
[3]; [6]
  IC50: < 1700 nM
[3]; [7]
  IC50: 1100 to 1700 nM
IKZF3 (Aiolos)
  IKZF3 degradation: A
IKZF1 (Ikaros)
  IKZF1 degradation: A

## CCc1cc(NC(=O)OCc2ccc3c(c2)C(=O)N(C2CCC(=O)NC2=O)C3)sn1 (stereo not drawn) [Compound 151]
GSPT1 [2]; [4]
  DC50: 30 to 300 nM
[3]; [6]
  IC50: < 500 nM
[3]; [7]
  IC50: < 500 nM

## Cc1ncc(NC(=O)OCc2ccc3c(c2)C(=O)N(C2CCC(=O)NC2=O)C3)cc1Cl (stereo not drawn) [Compound 6]
GSPT1 [1]
  GSPT1 degradation: F (F represents degradation at 0.3 μM (>90%))
CK1alpha
  CK1alpha degradation: A
[3]; [6]
  IC50: < 1700 nM
[3]; [7]
  IC50: 500 to 1100 nM
IKZF1 (Ikaros)
  IKZF1 degradation: A

## CCc1ncc(NC(=O)OCc2ccc3c(c2)C(=O)N(C2CCC(=O)NC2=O)C3)cc1C (stereo not drawn) [Compound 49]
GSPT1 [1]
  GSPT1 degradation: F (F represents degradation at 0.3 μM (>90%))
[3]; [6]
  IC50: < 1700 nM
[3]; [7]
  IC50: 1100 to 1700 nM
IKZF3 (Aiolos)
  IKZF3 degradation: A
IKZF1 (Ikaros)
  IKZF1 degradation: A

## Cc1c(Cl)cc(NC(=O)OCc2ccc3c(c2)C(=O)N(C2CCC(=O)NC2=O)C3)cc1CC1COCCN1C (stereo not drawn) [Compound 150, (2-(2,6-dioxopiperidin-3-yl)-3-oxoisoindolin-5-yl) methyl(3-chloro-4-methyl-5-((4-methylmorpholin-3-yl)methyl)phenyl)carbamate]
GSPT1 [2]; [5]
  DC50: ≤ 30 nM
GSPT1 [2]; read-out: Code (activity for GSPT1 degradation, DC50), CAL-51 cells, 6 hours
  DC50: < 30 nM
[3]; IC50 value, bounds stated in the text lists b2059-b2061
  IC50: < 1700 nM
[3]; rFP IC50 [nM], cereblon binding, class code
  IC50: 1100 to 1700 nM

## O=C1CCC(N2Cc3ccc(COC(=O)Nc4cccc(OC(F)(F)F)c4)cc3C2=O)C(=O)N1 (stereo not drawn) [Compound 3]
GSPT1 [1]
  GSPT1 degradation: F (F represents degradation at 0.3 μM (>90%))
[3]; [6]
  IC50: < 1700 nM
[3]; [7]
  IC50: 1100 to 1700 nM
IKZF3 (Aiolos)
  IKZF3 degradation: A
IKZF1 (Ikaros)
  IKZF1 degradation: A

## CC(F)(F)c1ccc(NC(=O)OCc2ccc3c(c2)C(=O)N(C2CCC(=O)NC2=O)C3)cc1 (stereo not drawn) [Compound 99]
GSPT1 [2]; [4]
  DC50: 30 to 300 nM
[3]; [6]
  IC50: < 1700 nM
[3]; [7]
  IC50: 1100 to 1700 nM

## COc1cc(C)c(Cl)cc1NC(=O)OCc1ccc2c(c1)C(=O)N(C1CCC(=O)NC1=O)C2 (stereo not drawn) [Compound 1]
ZFP91
  ZFP91 degradation: A
GSPT1 [1]
  GSPT1 degradation: F (F represents degradation at 0.3 μM (>90%))
[3]; [6]
  IC50: < 1700 nM
[3]; [7]
  IC50: 1100 to 1700 nM
IKZF1 (Ikaros)
  IKZF1 degradation: A
